Source: US9700533B2, “Maternal chelation for embryo, fetal and infant benefit” (priority 2005, dated 2017)

Columns and labels:
[1] = Chelation-provoked urine test, urinary cadmium; format: in vivo, human; conditions: Case 4
Method: (§1) The terms “diagnostic provocation” and “chelation-provoked urine tests” and related terms refer to a procedure whereby the patient is administered one of more dosages of chelators, after which the patient's urine is collected for a defined period of time. The collected urine is analyzed for metal content, the metal having been removed from the patient's body by the chelators. The results of this procedure can indicate which metals are present in the patient's body and the approximate levels of the metals, which is subsequently used in designing a course of chelation therapy.
(§2) The metals may be measured with or without prior chelation provocation. The standard values accepted by medical laboratories are measured without chelation provocation. Treatment with chelation medication mobilizes metal stores within in the body to be detected in the urine, thus values obtained post-provocation will be increased.

[2] = Chelation-provoked urine test, urinary uranium; format: in vivo, human
Method: as §1, §2

[3] = Chelation-provoked urine test, urinary tungsten; format: in vivo, human; conditions: Case 7; one 250-mg capsule DMSA orally, 6 hour urine
Method: as §1, §2

[4] = Chelation-provoked urine test, urinary tin; format: in vivo, human
Method: as §1, §2

[5] = Chelation-provoked urine test, urinary lead
Method: as §1, §2

[6] = Chelation-provoked urine test, urinary nickel; format: in vivo, human; conditions: Case 7; one 250-mg capsule DMSA orally, 6 hour urine
Method: as §1, §2

[7] = Maternal chelation treatment, pregnancy, child and patient outcome; format: in vivo, human
[8] = Chelation-provoked urine test, metals revealed (in words)
Method: as §1, §2

[9] = Case 7, one 250-mg capsule DMSA orally, 6 hour urine
[10] = Case 2, oral DMSA 250 mg three times a day, 24 hour urine
[11] = Case 4, after 4 months oral DMSA, 4 x 250 mg three times daily, 3 days per week
[12] = Case 4, four capsules DMSA 250 mg, 6 hour urine, before treatment

O=C(O)C(S)C(S)C(=O)O (centres unmarked) [DMSA, Dimercaptosuccinic Acid]
urinary cadmium, follow up provocation ([1]; after 4 months oral DMSA, 4 x 250 mg three times daily, 3 days per week): 0.18 mcg/g creatinine | provoked urinary cadmium ([1]; four capsules DMSA 250 mg, 6 hour urine, before treatment): 1.79 mcg/g creatinine | urinary uranium [2, 9]: 0.05 (normal <0.031) mcg/g creatinine | urinary uranium, times the reference range ([2]; Case 9, DMSA 1000 mg PO x1, 6 hour urine): > 100 × the reference range | urinary tungsten [3]: 6.41 (normal <0.34) mcg/g creatinine | urinary tin after provocation [4, 10]: 9 mcg/g creatinine | urinary tin, follow up provocation [4, 11]: 0.9 mcg/g creatinine | provoked urinary tin [4, 12]: 12.5 mcg/g creatinine | follow-up chelation-provoked urine, total body lead ([5]; Case 1, after 15 cycles DMSA three capsules three times a day, three days a week): a decrease in total body lead | urinary lead concentration on provocation ([5]; Case 1, oral DMSA 250 mg three times a day, 24 hour urine): 20 mcg/g creatinine | urinary lead concentration after provocation [5, 10]: 14 mcg/g creatinine | urinary lead, follow up provocation [5, 11]: 1.34 mcg/g creatinine | provoked urinary lead [5, 12]: 13.6 mcg/g creatinine | urinary lead [5, 9]: 4.79 (normal <1.41) mcg/g creatinine | urinary nickel [6]: 77 (normal <9.5) mcg/g creatinine | chronic fatigue during treatment ([7]; Case 4, during 4 months oral DMSA): chronic fatigue resolved | chronic fatigue ([7]; Case 5, calcium EDTA + vitamin C IV together with oral DMSA): chronic fatigue improved | neurological development of the baby ([7]; Case 5, parent treated preconceptionally with calcium EDTA + vitamin C IV and oral DMSA): above average neurological development | metals revealed by chelation-provoked urine test ([8]; Case 6, oral DMSA challenge three days after delivery): presence of both lead and mercury | metals excreted on provocation ([8]; Case 9, postpartum, DMSA 1000 mg PO x1, 6 hour urine): excretion of a number of metals, including lead, mercury, cadmium and uranium | metals revealed on challenge ([8]; Case 10, DMSA 250 mg PO x1, 6 hour urine): elevated amounts of lead, aluminum, antimony, barium, nickel, gallium, tin, tungsten, and uranium | metals revealed on provocation ([8]; Case 11, 1000 mg DMSA orally x1, 6 hour urine): elevated levels of lead, mercury, tin, uranium and tungsten

CC(=O)N[C@@H](CS)C(=O)O [NAC, N-Acetyl-Cysteine]
outcome of subsequent child ([7]; Case 3, 500 mg oral NAC per day throughout pregnancy, also vitamin C and selenium, previous child with attention deficit disorder): did not have attention deficit disorder
